The values that follow come from article PMC12744750 (Plant Communications, 2025).

For experiment [1], the target named is T1, ETR1^306-738 (Arabidopsis thaliana, UniProt P49333).
T1 construct: made in house
T1 sequence (P49333 306-738): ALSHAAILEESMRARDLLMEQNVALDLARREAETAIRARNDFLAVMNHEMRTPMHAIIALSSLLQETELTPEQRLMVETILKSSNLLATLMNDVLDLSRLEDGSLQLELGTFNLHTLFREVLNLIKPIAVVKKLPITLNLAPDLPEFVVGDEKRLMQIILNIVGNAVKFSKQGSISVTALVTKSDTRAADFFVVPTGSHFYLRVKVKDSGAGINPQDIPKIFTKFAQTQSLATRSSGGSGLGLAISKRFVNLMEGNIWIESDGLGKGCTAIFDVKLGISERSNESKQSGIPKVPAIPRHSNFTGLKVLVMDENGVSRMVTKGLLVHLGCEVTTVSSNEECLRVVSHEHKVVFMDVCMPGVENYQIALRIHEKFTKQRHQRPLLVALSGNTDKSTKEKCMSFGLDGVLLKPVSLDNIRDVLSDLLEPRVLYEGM
The experiment in a line: Microscale thermophoresis, PLS binding to ETR1 lacking the transmembrane domain. Conditions: MST, as full-length; ETR1^306-738 lacking N-terminal transmembrane domain; listed as PLS. How it is done: Fluorescently labeled ETR1 truncation mutants ([Milić et al., 2018]) were added to a dilution series of synthetic PLS in 50 mM HEPES, 150 mM NaCl, and 0.015% (w/v) FosCholine 16 (pH 7.6) or 50 mM Tris, 300 mM NaCl, and 0.015% (w/v) FosCholine 16 (pH 7.6). Dissociation constants were calculated using GraphPad Prism 5.
Full-length ETR1 and its truncation mutants were purified and labeled as described previously ([Milić et al., 2018]). Synthetic PLS (94 μM) was diluted serially in 50 mM Tris and 300 mM NaCl (pH 7.6). Fluorescently labeled receptor was added at a final concentration of 50 nM. Thermophoretic behavior was measured in premium capillaries at 50% LED and 50% microscale thermophoresis power. In case of a binding event, data were fitted using GraphPad Prism 5.
In general terms: Microscale thermophoresis detects binding through changes in fluorescence in a small temperature gradient.

Experiment [2] relates to ETR1:HA. The experiment is described as follows: Co-IP competition: synthetic PLS vs PLS:GFP binding to ETR1:HA in N. benthamiana leaves. Also on record: species or system Arabidopsis. Particulars: 25 nM synthetic PLS(FL), 0.5 μM CuSO4, 50 μM MG-132, 30 min before tissue harvest. The source says: To investigate the interaction between the PLS peptide and the ethylene receptor ETR1, two DNA constructs were created by Gateway cloning. The […] PLS gene (without the stop codon) was inserted into the pEarlyGate103 (pEG103) destination vector, which contained the pro35S promoter and a C-terminal GFP tag, to produce a vector containing pro35S::PLS:GFP DNA. The ETR1 cDNA was inserted into the pEarlyGate301 (pEG301) vector to create a pro35S::ETR1:HA construct to express an ETR1 protein with a C-terminal HA tag. pro35S::GFP was used as a control. The primers used to clone ETR1 and PLS are found in supplemental Table 9.
Constructs were transiently expressed in N. benthamiana (tobacco) leaves as described previously ([Voinnet et al., 2003]). Experiments were replicated up to five times. Competent Agrobacterium tumefaciens GV3101 cells were transformed with the desired plasmid containing the gene of interest and injected with a syringe. The plants were approximately 7–10 weeks old; the chosen leaves were healthy and 3–6 cm in length, and 3 to 4 leaves were infiltrated with each construct. […]
SDS–PAGE was used to separate protein fragments. The complexed proteins from the pulldown assay were analyzed on 10%–12% acrylamide gels. […] The horseradish peroxidase conjugated to the secondary antibody was detected using X-ray film. […]

For experiment [3], the system named is ETR1. The experiment is described as follows: Yeast 2-hybrid PLS-ETR1. The class given is binding, Arabidopsis. Particulars: preliminary yeast 2-hybrid, YRG-2 strain. How it is done:
The GAL4 2-hybrid phagemid vector system was used to detect protein–protein interactions in vivo in yeast, using the reporter genes β-galactosidase (lacZ) and histidine (HIS3) in the YRG-2 yeast strain, essentially as described previously ([Zhong et al., 2008]). DNA sequences encoding the target (ETR1) and bait (PLS) were inserted into the pAD-GAL4-2.1 A and pBD-GAL4 Cam phagemid vectors, respectively, and expressed as hybrid proteins. The hybrid proteins were then assayed for protein–protein interaction.
DNA sequences encoding the target and bait proteins were prepared by PCR amplification using primers designed specifically for the target (ETR1) and bait (PLS). Each set of primers contained specific endonuclease recognition sites on the ends corresponding to the restriction sites in the MCS of the pAD-GAL4-2.1 A and pBD-GAL4 Cam phagemid vectors. The DNA constructs for the target (ETR1) and bait (PLS) with specific restriction sites on the ends were then transformed into the TOPO 2.1 vector, and the sequence of the amplified DNA was confirmed by sequencing with M13 forward (CTG GCC GTC GTT TTA C) and M13 reverse (CAG GAA ACA GCT ATG AC) primers. […] The DNA sequences encoding the target (ETR1) and bait (PLS) were then ligated into the same reading frame as the GAL4 AD of the pAD-GAL4-2.1 phagemid vector and the GAL4 BD of the pBD-GAL4 Cam phagemid vector. […]

For “PLS(FL): full-length 36-amino-acid PLS peptide from Arabidopsis (MKPRLCFNFRRRSISPCYISISYLLVAKLFKLFKIH)”, the “binding (dissociation constant)” value in experiment [1] is on record as “no binding was detected”. In addition, the “reduction in PLS:GFP binding to ETR1:HA” value in experiment [2] is about 80%. In experiment [3], the “interaction with ETR1” value was “interacts with ETR1”.
